Experiments:
[1] = test system: granulocyte infiltration (MPO activity); experiment: Granulocyte/leucocyte infiltration (MPO activity), croton oil ear; format: in vivo, mice; conditions: for leukocyte infiltration: measured as myeloperoxidase activity; for Effect on granulocyte infiltration (MPO activity): apigenin glycoside 0.37, luteolin glycoside 0.27, indomethacin 1.26, hydrocortisone 0.41 μMol, one unit = 1 nMol/min. of tetraguaiacol at 25° C.
Experimental: Effect on granulocyte infiltration (MPO activity).
One unit = 1 nMol/min. of tetraguaiacol formed at 25° C. p < 0.05
The inflammation appears to naturally suppress after 30 hours.

[2] = test system: croton-oil induced ear oedema; experiment: Croton oil ear test (topical; oedema); format: in vivo, mice; conditions: for Activity Ratio on Molar basis: Indomethacin = 1; for Effect on Oedema Development: apigenin glycoside 0.037, luteolin glycoside 0.27, indomethacin 1.26, hydrocortisone 0.41 μMol, means ± s.e.
Description: The test used was described in published literature, where apigenin 7-glucoside was used as a reference sample.
Indomethacin and hydrocortisone were used as the reference drugs.

[3] = test system: Carrageenan-induced Mice Paw Oedema; experiment: Carrageenan-induced paw oedema, topical application; format: in vivo
Experimental: Carrageenan-induced Pedal Oedema Test:
Modification of Carrageenan-induced Mice Paw Oedema following Topical
Application of the Standardized Extract and Indomethacin.
The duration of action of topical preparation was determined by studying the effects of different concentrations of the drug on oedema over a period of 8 hr. As evident from the Table 3, the peak inhibition was observed after 3-4 hours of carrageenan injection beginning at 2 hr for the extract at lower concentrations (0.5-2.0%) and 1 hr. at 4% concentration.

[4] = test system: Carrageenan-induced Pedal Oedema; experiment: Carrageenan-induced pedal oedema in rats, oral extract / i.p. indomethacin; format: in vivo; conditions: for Oedema + SEM (%): N=6
Description: Carrageenan-induced oedema is a biphasic event, the early hypermia being due to the release of histamine and serotonin and the delayed oedema due to the release of bradykinin and prostaglandins.
Modification of Carrageenan-induced Pedal Oedema in Rats following oral
Administration of the extract and Intraperitoneal treatment with […]

cotton pellet granuloma = conditions: in vivo; cited from earlier work
[5] = test system: mast cell histamine secretion; conditions: cited from earlier work
neutrophil functions = conditions: cited from earlier work

SMILES: O=c1cc(-c2ccc(O)cc2)oc2cc(O)cc(O)c12 [Apigenin, apigenin]
- leukocyte infiltration [1]: decrease leukocyte infiltration

SMILES: O=c1cc(-c2ccc(O)cc2)oc2cc(O[C@@H]3O[C@H](CO)[C@@H](O)[C@H](O)[C@H]3O)cc(O)c12 [Apigenin-7-glucoside]
- Activity Ratio on Molar basis [2]: 0.32

SMILES: C[C@]12CCC(=O)C=C1CC[C@@H]1[C@@H]2[C@@H](O)C[C@@]2(C)[C@H]1CC[C@]2(O)C(=O)CO [Hydrocortisone]
- Effect on granulocyte infiltration (MPO activity) ([1]; 6 hours after treatment): 0.0 ± 0.2 unit
- Effect on granulocyte infiltration (MPO activity) ([1]; 18 hours after treatment): 6.9 ± 2.1 unit
- Effect on granulocyte infiltration (MPO activity) ([1]; 30 hours after treatment): 8.2 ± 2.4 unit
- Effect on Oedema Development ([2]; 6 hours after treatment): 0.5 ± 0.2 mg
- duration of antiinflammatory activity ([2]; 18 hours after treatment): maintain their effect to a certain extent
- Effect on Oedema Development ([2]; 18 hours after treatment): 0.7 ± 0.1 mg
- Effect on Oedema Development ([2]; 30 hours after treatment): 0.7 ± 0.1 mg
- Activity Ratio on Molar basis [2]: 14.00

SMILES: COc1ccc2c(c1)c(CC(=O)O)c(C)n2C(=O)c1ccc(Cl)cc1 [Indomethacin]
- Effect on granulocyte infiltration (MPO activity) ([1]; 6 hours after treatment): 0.0 ± 0.1 unit
- Effect on granulocyte infiltration (MPO activity) ([1]; 18 hours after treatment): 10.0 ± 1.6 unit
- Effect on granulocyte infiltration (MPO activity) ([1]; 30 hours after treatment): 6.8 ± 3.4 unit
- Effect on Oedema Development ([2]; 6 hours after treatment): 0.0 ± 0.1 mg
- duration of antiinflammatory activity ([2]; 18 hours after treatment): lose their antiinflammatory activity 18 hours after treatment
- Effect on Oedema Development ([2]; 18 hours after treatment): 3.1 ± 0.4 mg
- Effect on Oedema Development ([2]; 30 hours after treatment): 0.5 ± 0.1 mg
- inhibition of carrageenan-induced paw oedema ([3]; Indomethacin line printed at dose 1.00, +60 m, N=6): 30.3%
- inhibition of carrageenan-induced paw oedema ([3]; Indomethacin line printed at dose 1.00, +120 m, N=6): 28.0%
- inhibition of carrageenan-induced paw oedema ([3]; Indomethacin line printed at dose 1.00, +180 m, N=6): 46.8%
- inhibition of carrageenan-induced paw oedema ([3]; Indomethacin line printed at dose 1.00, +240 m, N=6): 21.2%
- inhibition of carrageenan-induced paw oedema ([3]; Indomethacin line printed at dose 1.00, +360 m, N=6): 11.5%
- inhibition of carrageenan-induced paw oedema ([3]; Indomethacin line printed at dose 1.00, +480 m, N=6): 13.9%
- inhibition of carrageenan-induced paw oedema ([3]; Indomethacin line printed at dose 2.00, +60 m, N=6): 18.2%
- inhibition of carrageenan-induced paw oedema ([3]; Indomethacin line printed at dose 2.00, +120 m, N=6): 24.0%
- inhibition of carrageenan-induced paw oedema ([3]; Indomethacin line printed at dose 2.00, +180 m, N=6): 29.0%
- inhibition of carrageenan-induced paw oedema ([3]; Indomethacin line printed at dose 2.00, +240 m, N=6): 21.2%
- inhibition of carrageenan-induced paw oedema ([3]; Indomethacin line printed at dose 2.00, +360 m, N=6): 9.6%
- inhibition of carrageenan-induced paw oedema ([3]; Indomethacin line printed at dose 2.00, +480 m, N=6): 4.6%
- inhibition ([3]; indomethacin 2 percent concentration): 41.9%
- inhibition of carrageenan-induced paw oedema ([3]; last line, no dose given, +60 m): 24.2%
- inhibition of carrageenan-induced paw oedema ([3]; last line, no dose given, +120 m): 26.0%
- inhibition of carrageenan-induced paw oedema ([3]; last line, no dose given, +180 m): 41.9%
- inhibition of carrageenan-induced paw oedema ([3]; last line, no dose given, +240 m): 36.4%
- inhibition of carrageenan-induced paw oedema ([3]; last line, no dose given, +360 m): 11.5%
- inhibition of carrageenan-induced paw oedema ([3]; last line, no dose given, +480 m): 10.6%
- Oedema + SEM (%) ([4]; indomethacin 0.5 mg/Kg i.p., +30 min): 13.6 ± 4.0%
- Oedema + SEM (%) ([4]; indomethacin 0.5 mg/Kg i.p., +60 min): 18.9 ± 4.0%
- Oedema + SEM (%) ([4]; indomethacin 0.5 mg/Kg i.p., +120 min): 28.8 ± 4.2%
- Oedema + SEM (%) ([4]; indomethacin 1.0 mg/Kg i.p., +30 min): 9.3 ± 2.3%
- Oedema + SEM (%) ([4]; indomethacin 1.0 mg/Kg i.p., +60 min): 12.3 ± 2.2%
- Oedema + SEM (%) ([4]; indomethacin 1.0 mg/Kg i.p., +120 min): 16.4 ± 1.6%
- inhibition of oedema ([4]; indomethacin 1 mg/kg i.p.): 74%
- Oedema + SEM (%) ([4]; indomethacin 2.0 mg/Kg i.p., +30 min): 8.2 ± 1.5%
- Oedema + SEM (%) ([4]; indomethacin 2.0 mg/Kg i.p., +60 min): 12.8 ± 1.8%

SMILES: O=c1c(O)c(-c2ccc(O)c(O)c2)oc2cc(O)cc(O)c12 [Quercetin, quercetin]
- exudative and proliferative phases of cotton pellet granuloma (cotton pellet granuloma): control significantly the exudative and the proliferative phases of the cotton pellet granuloma
- mast cell histamine secretion [5]: inhibits mast cell histamine secretion
- neutrophil functions: release of lysosomal enzymes, oxygen consumption, generation of free radicals and chemotaxis (neutrophil functions): inhibits mast cell histamine secretion (Benett, J. P., Gomperts, B. D. and Wollenweber, E., Arzneim. Forsch., 31, 433, 1981), neutrophil functions such as release of lysosomal enzymes, oxygen consumption, generation of free radicals and chemotaxis
- Activity Ratio on Molar basis [2]: 0.65

SMILES: C[C@@H]1O[C@@H](OC[C@H]2O[C@@H](Oc3c(-c4ccc(O)c(O)c4)oc4cc(O)cc(O)c4c3=O)[C@H](O)[C@@H](O)[C@@H]2O)[C@H](O)[C@H](O)[C@H]1O [Rutin]
- Activity Ratio on Molar basis [2]: 0.28

SMILES: O=c1cc(-c2ccc(O)c(O)c2)oc2cc(O)cc(O)c12 [luteolin]
- leukocyte infiltration [1]: decrease leukocyte infiltration and luteolin maintained its effect even after 18 hours of treatment

Reference: patent US5858371A, “Pharmaceutical composition for the control and treatment of anorectal and colonic diseases” (Panacea Biotech Limited, priority 1997, dated 1999)
